Laboratory results published in US6822112B1, “Prostaglandin derivatives” (Taisho Pharmaceutical Co., Ltd., priority 1999, dated 2004).

System: EBTr [NBL-4] cell derived from bovine embryonic trachea
Experiment: Measurement of cAMP production promoting action in EBTr [NBL-4] cell
Assay type: cell-based
Conditions: 1 × 10^−9 M concentration of compound added; EBTr [NBL-4] cells, 15 minutes with 0.5 mM 3-isobutyl-1-methylxanthine; cAMP EIA
Protocol: Measurement of cAMP production promoting action in EBTr [NBL-4] cell derived from bovine embryonic trachea
According to the method of Ito et al. in Br. J. Pharmacol., vol. 99, page 13 (1990), the following test was carried out.
That is, EBTr [NBL-4] cells derived from bovine embryonic trachea (produced by Dainippon Pharmaceutical Co.) were inoculated on 24-well plates (6×10^4 cells/well) (manufactured by Sumitomo Bakelite Co.), and cultured on a growth medium (MEM Earle's medium including 10% calf serum, 2 mM glutamine and non-essential amino acids) for 48 hours, followed by cultivation on 0.5 ml of a growth medium including the test compound and 0.5 mM 3-isobutyl-1-methylxanthine for 15 minutes. After the completion of the reaction, the cells were washed with a phosphate buffer (not including Ca^++ and Mg^++), 0.6 ml of 65% aqueous ethanol solution was added, followed by allowing to stand at 4° C. for an hour, and the resulting cAMP was extracted. After evaporation of the solvent by a centrifugal evaporator, the amount of cAMP was measured by using a cAMP EIA System (manufactured by Amersham Co.).

For `O=C(O)c1ccc(CCCC2C(Cl)CC(O)C2C#CC(O)C2CCCCC2)cc1` (stereo not drawn) [Compound 35, 9-Deoxy-9β-chloro-2,3,4,16,17,18,19,20-octanor-1,5-inter-p-phenylene-15-cyclohexyl-13,14-didehydro-PGF1α], the “cAMP production promoting action (percent to PGD2)” value was 150 percent to PGD2.
